Data taken from the supplement of paper PMC10307832.

Experiments:
Assay in all cases: relative viability (nuclei count vs DMSO), 5 days (fraction); higher = more cells survive
[1] = compound: O=C(NCCCNc1nc(Nc2cccc(NC(=O)N3CCCC3)c2)ncc1I)c1cccs1 [BX 795] + N=C(N)NC(=N)NCCc1ccccc1 [Phenformin] (partner 250 µM)
Outline: (§1)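 Nuclei were stained with Hoechst during a one-step fixation (final 0.05% Triton X-100, 1% formaldehyde, 1 ug/ml Hoechst) carried out 5 days after dosing, then counted on 4× images. The cells, lung cancer lines in 1536-well plates, had been dosed by pin tool the day after seeding with one drug alone or a fixed anchor-drug dose plus five library-drug doses (not always all listed) in √10 steps. Relative viability is the nuclei count in treated wells divided by that in vehicle wells, and each value is the median of duplicate plates.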

[2] = compound: O=C(NCCCNc1nc(Nc2cccc(NC(=O)N3CCCC3)c2)ncc1I)c1cccs1 [BX 795] + CC(=O)Nc1cccc(-n2c(=O)n(C3CC3)c(=O)c3c(Nc4ccc(I)cc4F)n(C)c(=O)c(C)c32)c1 [Trametinib] (partner 0.02 µM)
Outline: as §1

[3] = compound: O=C(NCCCNc1nc(Nc2cccc(NC(=O)N3CCCC3)c2)ncc1I)c1cccs1 [BX 795] + Cc1nc(Nc2ncc(C(=O)Nc3c(C)cccc3Cl)s2)cc(N2CCN(CCO)CC2)n1 [Dasatinib] (partner 0.075 µM)
Outline: as §1

[4] = compound: O=C(NCCCNc1nc(Nc2cccc(NC(=O)N3CCCC3)c2)ncc1I)c1cccs1 [BX 795] + CCNC(=O)c1noc(-c2cc(C(C)C)c(O)cc2O)c1-c1ccc(CN2CCOCC2)cc1 [Luminespib] (partner 0.01 µM)
Outline: as §1

[5] = compound: O=C(NCCCNc1nc(Nc2cccc(NC(=O)N3CCCC3)c2)ncc1I)c1cccs1 [BX 795] + COc1cccc2cc(-c3nc([C@H]4CC[C@H](C(=O)O)CC4)n4ncnc(N)c34)[nH]c12 [OSI-027] (partner 0.5 µM)
Outline: as §1

Cell Line	relative viability ([1]; first compound 0.04 µM)	relative viability ([1]; first compound 0.1265 µM)	relative viability ([1]; first compound 0.4 µM)	relative viability ([1]; first compound 1.265 µM)	relative viability ([2]; first compound 0.04 µM)	relative viability ([2]; first compound 0.1265 µM)	relative viability ([2]; first compound 0.4 µM)	relative viability ([2]; first compound 1.265 µM)	relative viability ([3]; first compound 0.04 µM)	relative viability ([3]; first compound 0.1265 µM)	relative viability ([3]; first compound 0.4 µM)	relative viability ([3]; first compound 1.265 µM)	relative viability ([4]; first compound 0.04 µM)	relative viability ([4]; first compound 0.1265 µM)	relative viability ([4]; first compound 0.4 µM)	relative viability ([4]; first compound 1.265 µM)	relative viability ([5]; first compound 0.04 µM)	relative viability ([5]; first compound 0.1265 µM)	relative viability ([5]; first compound 0.4 µM)	relative viability ([5]; first compound 1.265 µM)
NCI-H1734	0.419	0.375	0.402	0.307	0.714	0.651	0.69	0.562	0.446	0.465	0.474	0.398	0.173	0.209	0.154	0.149	0.536	0.592	0.555	0.419
NCI-H1755	0.618	0.564	0.592	0.546	0.849	0.763	0.793	0.665	0.432	0.468	0.465	0.353	0.635	0.412	0.283	0.388	0.711	0.74	0.794	0.552
NCI-H1792	0.431	0.463	0.216	0.178	0.425		0.525	0.509	0.792	0.764	0.821	0.664	0.477	0.336	0.432	0.384	0.765	0.728	0.702	0.53
NCI-H1793	0.358	0.35	0.366	0.289	0.404	0.403	0.526	0.344	0.408	0.403	0.361	0.356	0.153	0.137	0.168	0.182	0.34	0.292	0.329	0.241
NCI-H1915	0.388	0.389	0.38	0.301	0.315	0.271	0.304	0.265	0.323	0.285	0.306	0.29	0.688	0.891	0.71	0.624	0.7	0.6	0.663	0.469
NCI-H1944	0.254	0.203	0.234	0.191	0.467	0.377	0.538	0.374	0.241	0.219	0.201	0.194	0.739	0.729	0.758	0.595	0.51	0.459	0.488	0.381
NCI-H1975	0.409	0.442	0.422	0.317	0.383	0.358	0.316	0.316	0.346	0.433	0.401	0.289	0.228	0.427	0.139	0.183	0.83	0.7	0.574	0.424
NCI-H1993	0.492	0.499	0.485	0.523	0.554	0.439	0.504	0.561	0.454	0.56	0.472	0.525	0.686	1.1	0.726	0.532	0.528	0.537	0.531	0.532
NCI-H2009	0.492	0.447	0.447	0.305	0.264	0.227	0.274	0.179	0.261	0.292	0.249	0.162	1.02	0.932	1.11	0.83	0.612	0.595	0.604	0.386
NCI-H2023	0.426	0.378	0.305	0.195	0.797	0.468	0.456	0.233	0.5	0.54	0.306	0.302	0.766	0.613	0.442	0.272	0.272	0.398	0.173	0.182
NCI-H2085	0.73	0.83	0.699	0.606	0.645	0.512	0.669	0.484	0.25	0.214	0.221	0.249	0.38	0.416	0.441	0.332	0.732	0.817	0.73	0.648
NCI-H2087	0.547	0.545	0.563	0.411	0.235	0.163	0.242	0.221	0.895	0.814	0.79	0.619	0.188	0.199	0.157	0.147	0.793	0.82	0.848	0.502
NCI-H2126	0.534	0.542	0.605	0.498	0.611	0.537	0.685	0.534	0.649	0.658	0.507	0.599	0.902	0.955	0.812	0.944	0.837	0.677	0.818	0.699
NCI-H2170	0.46	0.383	0.446	0.413	0.948	0.945	0.93	0.951	0.594	0.517	0.476	0.64	0.83	0.541	0.39	0.544	0.725	0.643	0.791	0.674
